Experimental data reported in patent US11266714B2, “Chloride salt of TAT-NR2B9C” (NoNO Inc., priority 2014, dated 2022).
No end group written: not given here.

Experiment: Solubility study of TAT-NR2B9c, visual analysis
Format: physicochemical
Conditions: pH 6.5, 35, 50, 75 and 100 mg/mL, t=0 and t=24 hours
Procedure: Due to the relatively low Tg temperatures that would likely require a longer lyophilization cycle to dry, we looked at a wider range of standard bulking agents and looked to reduce the fill volume into the container closure system so that there would be a reduced volume of liquid to lyophilize. […] Samples were visually analyzed at 35, 50, 75 and 100 mg/mL. All solutions were clear at t=0 and t=24 hours. […] A wide range of quantities may be required in a vial, but 270 mg would provide a […] dose for a 100 kg patient. Assuming the target reconstitution concentration for patient administration is still 20 mg/mL (but can be from 1 mg/ml to 100 mg/ml), then a 20-mL lyophilization vial containing 270 mg of TAT-NR2B9c can be used with a reconstitution volume of 13.5 mL. Therefore, optimal volumes of liquid for lyophilization of TAT-NR2B9c in the vial would be between 2.5 mL and 10 mL.

Q: For YGRKKRRQRRRKLSSIESDV [TAT-NR2B9c], which “solubility, visual analysis” value (in Histidine+Trehalose) is on record?
A: clear

Q: And the “solubility, visual analysis” value (in Histidine)?
A: clear
